Results published in patent US7476666B2, “HIV integrase inhibitors” (Merck & Co., Inc., priority 2004, dated 2009).

The compounds below were run on acute HIV infection of T-lymphoid cells (assay: Inhibition of acute HIV infection of T-lymphoid cells (spread assay)). Settings: Human immunodeficiency virus 1.
Assay type: cell-based
Description: An assay for the inhibition of acute HIV infection of T-lymphoid cells (alternatively referred to herein as the “spread assay”) was conducted in accordance with Vacca, J. P. et al., Proc. Natl. Acad. Sci. USA 1994, 91: 4096.

Compound | IC95 [µM]
CN1CC(C(=O)N2CCCCC2)n2nc(C(=O)NCc3ccc(F)cc3)c(O)c2C1=O (stereo not drawn) [Example 7, N-(4-Fluorobenzyl)-3-hydroxy-5-methyl-4-oxo-7-(piperidin-1-ylcarbonyl)-4,5,6,7-tetrahydropyrazolo[1,5-a]pyrazine-2-carboxamide] | ≤ 10
CC1Cn2nc(C(=O)NCc3ccc(F)cc3)c(O)c2C(=O)N1C (stereo not drawn) [Example 5, 5,6-Dimethyl-N-(4-fluorobenzyl)-3-hydroxy-4-oxo-4,5,6,7-tetrahydropyrazolo[1,5-a]pyrazine-2-carboxamide] | ≤ 10
CN1CC(c2ccncc2)n2nc(C(=O)NCc3ccc(F)c(Cl)c3)c(O)c2C1=O (stereo not drawn) [Example 46, N-(3-Chloro-4-fluorobenzyl)-3-hydroxy-5-methyl-4-oxo-7-pyridin-4-yl-4,5,6,7-tetrahydropyrazolo[1,5-a]pyrazine-2-carboxamide] | ≤ 10
CCNC(=O)c1cc(F)ccc1CNC(=O)c1nn2c(c1O)C(=O)N(C)C[C@H]2c1ccccc1 [Example 39, (7R)-N-{2-[(Ethylamino)carbonyl]-4-fluorobenzyl}-3-hydroxy-5-methyl-4-oxo-7-phenyl-4,5,6,7-tetrahydropyrazolo[1,5-a]pyrazine-2-carboxamide] | ≤ 10
CN1C[C@H](c2ccccc2)n2nc(C(=O)NCc3ccc(F)cc3C(=O)NC3CC3)c(O)c2C1=O [Example 36, (7S)-N-{2-[(Cyclopropylamino)carbonyl]-4-fluorobenzyl}-3-hydroxy-5-methyl-4-oxo-7-phenyl-4,5,6,7-tetrahydropyrazolo[1,5-a]pyrazine-2-carboxamide] | ≤ 10
CN1CC(c2cccc(C#N)c2)n2nc(C(=O)NCc3ccc(F)cc3)c(O)c2C1=O (stereo not drawn) [Example 44, 7-(3-Cyanophenyl)-N-(4-fluorobenzyl)-3-hydroxy-5-methyl-4-oxo-4,5,6,7-tetrahydropyrazolo[5,5-a]pyrazine-2-carboxamide] | ≤ 10
CNC(=O)c1cc(F)ccc1CNC(=O)c1nn2c(c1O)C(=O)N(C)CC2C(C)C (stereo not drawn) [Example 49, N-{4-Fluoro-2-[(methylamino)carbonyl]benzyl}-3-hydroxy-7-isopropyl-5-methyl-4-oxo-4,5,6,7-tetrahydropyrazolo[1,5-a]pyrazine-2-carboxamide] | ≤ 10
Cn1c(=O)c2c(O)c(C(=O)NCc3ccc(F)cc3)nn2c2ccccc21 [Example 32, N-(4-fluorobenzyl)-3-hydroxy-5-methyl-4-oxo-4,5-dihydropyrazolo[1,5-a]quinoxaline-2-carboxamide] | ≤ 10
CC(C)C1CN(C)C(=O)c2c(O)c(C(=O)NCc3ccc(F)cc3)nn21 (stereo not drawn) [Example 48, N-(4-Fluorobenzyl)-3-hydroxy-7-isopropyl-5-methyl-4-oxo-4,5,6,7-tetrahydropyrazolo[1,5-a]pyrazine-2-carboxamide] | ≤ 10
O=C(NCc1ccc(Cl)c(Cl)c1)c1nn2c(c1O)C(=O)N(CC(=O)N1CCOCC1)CC2 [Example 20, N-(3,4-Dichlorobenzyl)-3-hydroxy-5-[2-(4-morpholinyl)-2-oxoethyl]-4-oxo-4,5,6,7-tetrahydropyrazolo[1,5-a]pyrazine-2-carboxamide] | ≤ 10
CN1C[C@H](c2ccccc2)n2nc(C(=O)NCc3ccc(F)cc3C(N)=O)c(O)c2C1=O [Example 42, (7S)-N-[2-(Aminocarbonyl)-4-fluorobenzyl]-3-hydroxy-5-methyl-4-oxo-7-phenyl-4,5,6,7-tetrahydropyrazolo[1,5-a]pyrazine-2-carboxamide] | ≤ 10
CN1CC(c2ccccc2)n2nc(C(=O)NCc3ccc(F)cc3)c(O)c2C1=O (stereo not drawn) [Example 2, N-(4-Fluorobenzyl)-3-hydroxy-5-methyl-4-oxo-7-phenyl-4,5,6,7-tetrahydropyrazolo[1,5-a]pyrazine-2-carboxamide] | ≤ 10
Cc1cn(C)c(=O)c2c(O)c(C(=O)NCc3ccc(F)cc3)nn12 [Example 10, 5,7-Dimethyl-N-(4-fluorobenzyl)-3-hydroxy-4-oxo-4,5-dihydropyrazolo[1,5-a]pyrazine-2-carboxamide] | ≤ 10
COC(=O)c1nn2c(c1O)C(=O)N(Cc1ccc(F)cc1)CCC2 [Example 30, Methyl 5-(4-Fluorobenzyl)-3-hydroxy-4-oxo-5,6,7,8-tetrahydro-4H-pyrazolo[1,5-a][1,4]diazepine-2-carboxylate] | ≤ 10
CCNC(=O)c1cc(F)ccc1CNC(=O)c1nn2c(c1O)C(=O)N(C)C[C@@H]2c1ccccc1 [Example 40, (7S)-N-{2-[(Ethylamino)carbonyl]-4-fluorobenzyl}-3-hydroxy-5-methyl-4-oxo-7-phenyl-4,5,6,7-tetrahydropyrazolo[1,5-a]pyrazine-2-carboxamide] | ≤ 10
Cc1nc(C2CN(C)C(=O)c3c(O)c(C(=O)NCc4ccc(F)cc4)nn32)cs1 (stereo not drawn) [Example 12, N-(4-Fluorobenzyl)-3-hydroxy-5-methyl-(2-methyl-1,3-thiazol-4-yl)-4-oxo-4,5,6,7-tetrahydropyrazolo[1,5-a]pyrazine-2-carboxamide] | ≤ 10
CNC(=O)c1nn2c(c1O)C(=O)N(Cc1ccc(F)cc1)CC2c1ccccc1 (stereo not drawn) [Example 4, 5-(4-Fluorobenzyl)-3-hydroxy-N-methyl-4-oxo-7-phenyl-4,5,6,7-tetrahydropyrazolo[1,5-a]pyrazine-2-carboxamide] | ≤ 10
CN1CC(c2cccnc2)n2nc(C(=O)NCc3ccc(F)cc3)c(O)c2C1=O (stereo not drawn) [Example 31, N-(4-fluorobenzyl)-3-hydroxy-5-methyl-4-oxo-7-pyridin-3-yl-4,5,6,7-tetrahydropyrazolo[1,5-a]pyrazine-2-carboxamide] | ≤ 10
CN1C[C@@H](c2ccccc2)n2nc(C(=O)NCc3ccc(F)cc3C(N)=O)c(O)c2C1=O [Example 41, (7R)-N-[2-(Aminocarbonyl)-4-fluorobenzyl]-3-hydroxy-5-methyl-4-oxo-7-phenyl-4,5,6,7-tetrahydropyrazolo[1,5-a]pyrazine-2-carboxamide] | ≤ 10
CN1CC(c2cccc(Br)c2)n2nc(C(=O)NCc3ccc(F)cc3)c(O)c2C1=O (stereo not drawn) [Example 43, 7-(3-Bromophenyl)-N-(4-fluorobenzyl)-3-hydroxy-5-methyl-4-oxo-4,5,6,7-tetrahydropyrazolo[1,5-a]pyrazine-2-carboxamide] | ≤ 10
CN1CC(c2ccncc2)n2nc(C(=O)NCc3ccc(F)cc3)c(O)c2C1=O (stereo not drawn) [Example 45, N-(4-Fluorobenzyl)-3-hydroxy-5-methyl-4-oxo-7-pyridin-4-yl-4,5,6,7-tetrahydropyrazolo[1,5-a]pyrazine-2-carboxamide] | ≤ 10
CN1CCn2nc(C(=O)NCc3ccc(F)cc3S(C)(=O)=O)c(O)c2C1=O [Example 15, N-[4-Fluoro-2-(methylsulfonyl)benzyl]-3-hydroxy-5-methyl-4-oxo-4,5,6,7-tetrahydropyrazolo[1,5-a]pyrazine-2-carboxamide] | ≤ 10
O=C(c1nn2c(c1O)C(=O)N(Cc1ccc(F)cc1)CC2)N1CCC1 [Example 27, 2-(Azetidin-1-ylcarbonyl)-5-(4-fluorobenzyl)-3-hydroxy-4-oxo-4,5,6,7-tetrahydropyrazolo[1,5-a]pyrazine] | ≤ 10
CN(C)C(=O)C1(C)CN(C)C(=O)c2c(O)c(C(=O)NCc3ccc(F)cc3)nn21 (stereo not drawn) [Example 8, 5,7-Dimethyl-N-(4-fluorobenzyl)-3-hydroxy-7-(dimethylaminocarbonyl)-4-oxo-4,5,6,7-tetrahydropyrazolo[1,5-a]pyrazine-2-carboxamide] | ≤ 10
